In patent publication US20240299359A1, “PHARMACEUTICAL COMPOSITION FOR ANIMALS CONTAINING 5-HYDROXY-METHYLIMIDAZOLIDINE-2,4-DIONE COMPOUND AS ACTIVE INGREDIENT” (KYONGBO PHARM. CO., LTD., priority 2021, published 2024):

Assay: 13-week repeated oral toxicity: weight measurement
Assay type: in vivo, beagle
Settings: for Weight: in kg (unit assumed)
Experimental: During the 13-week test period starting from the day before administration, the weight was measured a total of 15 times before administration (pre), before administration on the day of administration, and every week over the 13-week test period after the first administration at a predetermined time (remaining feed measurement time) before administration of the test substance (on every Tuesday during the test period).

With `CN1C(=O)NC(=O)C1O` (stereo not drawn) [KBP-001, 5-hydroxy-1-methylimidazolidine-2,4-dione] the Weight, Mean (500 mg/kg repeated oral (G3), female, week 5, mean) was 9.8 kg, the Weight, Mean (500 mg/kg repeated oral (G3), female, week 6, mean) was 9.8 kg and the Weight, Mean (500 mg/kg repeated oral (G3), female, week 7, mean) was 9.8 kg. It also gave a Weight, Mean (500 mg/kg repeated oral (G3), female, week 8, mean) of 9.8 kg, a Weight, Mean (500 mg/kg repeated oral (G3), female, week 9, mean) of 9.8 kg and a Weight, Mean (500 mg/kg repeated oral (G3), female, week 10, mean) of 9.8 kg. It also gave a Weight, Mean (500 mg/kg repeated oral (G3), female, week 11, mean) of 9.9 kg, a Weight, Mean (500 mg/kg repeated oral (G3), female, week 12, mean) of 9.9 kg and a Weight, Mean (500 mg/kg repeated oral (G3), female, week 13, mean) of 10 kg. For the same molecule, the Weight, Mean (500 mg/kg repeated oral (G3), female, week pre, mean) was 9.5 kg, the Weight (500 mg/kg repeated oral (G3), male, week 0, individual animals) was 10.0 and the Weight, Mean (500 mg/kg repeated oral (G3), male, week 0, mean) was 9.9 kg. The Weight, Mean (500 mg/kg repeated oral (G3), male, week 1, mean) was 10 kg, the Weight, Mean (500 mg/kg repeated oral (G3), male, week 2, mean) was 9.9 kg and the Weight, Mean (500 mg/kg repeated oral (G3), male, week 3, mean) was 9.9 kg. For the same molecule, the Weight, Mean (500 mg/kg repeated oral (G3), male, week 4, mean) was 10 kg, the Weight, Mean (500 mg/kg repeated oral (G3), male, week 5, mean) was 10.1 kg and the Weight (500 mg/kg repeated oral (G3), male, week 6, individual animals) was 10.1. The Weight, Mean (500 mg/kg repeated oral (G3), male, week 6, mean) was 10.1 kg, the Weight (500 mg/kg repeated oral (G3), male, week 7, individual animals) was 10.1 and the Weight, Mean (500 mg/kg repeated oral (G3), male, week 7, mean) was 10.1 kg. It also gave a Weight (500 mg/kg repeated oral (G3), male, week 8, individual animals) of 10.3, a Weight, Mean (500 mg/kg repeated oral (G3), male, week 8, mean) of 10.1 kg and a Weight (500 mg/kg repeated oral (G3), male, week 9, individual animals) of 10.4. It also gave a Weight, Mean (500 mg/kg repeated oral (G3), male, week 9, mean) of 10.1 kg, a Weight (500 mg/kg repeated oral (G3), male, week 10, individual animals) of 10.4 and a Weight, Mean (500 mg/kg repeated oral (G3), male, week 10, mean) of 10.2 kg. For the same molecule, the Weight (500 mg/kg repeated oral (G3), male, week 11, individual animals) was 10.4, the Weight, Mean (500 mg/kg repeated oral (G3), male, week 11, mean) was 10.1 kg and the Weight (500 mg/kg repeated oral (G3), male, week 12, individual animals) was 10.3. The Weight, Mean (500 mg/kg repeated oral (G3), male, week 12, mean) was 10.2 kg, the Weight (500 mg/kg repeated oral (G3), male, week 13, individual animals) was 10.5 and the Weight, Mean (500 mg/kg repeated oral (G3), male, week 13, mean) was 10.3 kg. It also gave a Weight (500 mg/kg repeated oral (G3), male, week pre, individual animals) of 10.1, a Weight, Mean (500 mg/kg repeated oral (G3), male, week pre, mean) of 10 kg and a Weight, Mean (1,000 mg/kg repeated oral (G4), female, week 0, mean) of 9.4 kg. It also gave a Weight, Mean (1,000 mg/kg repeated oral (G4), female, week 1, mean) of 9.4 kg, a Weight, Mean (1,000 mg/kg repeated oral (G4), female, week 2, mean) of 9.3 kg and a Weight, Mean (1,000 mg/kg repeated oral (G4), female, week 3, mean) of 9.4 kg. The Weight, Mean (1,000 mg/kg repeated oral (G4), female, week 4, mean) was 9.6 kg, the Weight, Mean (1,000 mg/kg repeated oral (G4), female, week 5, mean) was 9.5 kg and the Weight, Mean (1,000 mg/kg repeated oral (G4), female, week 6, mean) was 9.4 kg. It also gave a Weight, Mean (1,000 mg/kg repeated oral (G4), female, week 7, mean) of 9.4 kg, a Weight, Mean (1,000 mg/kg repeated oral (G4), female, week 8, mean) of 9.5 kg and a Weight, Mean (1,000 mg/kg repeated oral (G4), female, week 9, mean) of 9.7 kg. For the same molecule, the Weight, Mean (1,000 mg/kg repeated oral (G4), female, week 10, mean) was 0.8 kg, the Weight, Mean (1,000 mg/kg repeated oral (G4), female, week 11, mean) was 9.8 kg and the Weight, Mean (1,000 mg/kg repeated oral (G4), female, week 12, mean) was 9.8 kg. The Weight, Mean (1,000 mg/kg repeated oral (G4), female, week 13, mean) was 9.8 kg, the Weight, Mean (1,000 mg/kg repeated oral (G4), female, week pre, mean) was 9.4 kg and the Weight, Mean (1,000 mg/kg repeated oral (G4), male, week 0, mean) was 10.2 kg. It also gave a Weight, Mean (1,000 mg/kg repeated oral (G4), male, week 1, mean) of 10.2 kg, a Weight, Mean (1,000 mg/kg repeated oral (G4), male, week 2, mean) of 10.1 kg and a Weight, Mean (1,000 mg/kg repeated oral (G4), male, week 3, mean) of 10 kg. The Weight, Mean (1,000 mg/kg repeated oral (G4), male, week 4, mean) was 10.2 kg, the Weight, Mean (1,000 mg/kg repeated oral (G4), male, week 5, mean) was 10.3 kg and the Weight, Mean (1,000 mg/kg repeated oral (G4), male, week 6, mean) was 10 kg. It also gave a Weight, Mean (1,000 mg/kg repeated oral (G4), male, week 7, mean) of 10.1 kg, a Weight, Mean (1,000 mg/kg repeated oral (G4), male, week 8, mean) of 10.1 kg and a Weight, Mean (1,000 mg/kg repeated oral (G4), male, week 9, mean) of 10.2 kg. It also gave a Weight, Mean (1,000 mg/kg repeated oral (G4), male, week 10, mean) of 10.2 kg, a Weight, Mean (1,000 mg/kg repeated oral (G4), male, week 11, mean) of 10.2 kg and a Weight, Mean (1,000 mg/kg repeated oral (G4), male, week 12, mean) of 10.2 kg. For the same molecule, the Weight, Mean (1,000 mg/kg repeated oral (G4), male, week 13, mean) was 10.2 kg, the Weight, Mean (1,000 mg/kg repeated oral (G4), male, week pre, mean) was 10.2 kg and the “weight compared with control group” value (repeated oral once a day for 13 weeks, male and female) was “no significant differences in weight from the control group was observed”.
